Experimental data taken from PubChem BioAssay AID2305 (GlaxoSmithKline (GSK), 2010).
pIC50: −log10 of the molar value.

System: P. falciparum 3D7 growth, pLDH absorbance
Experiment: blood-stage malaria parasite growth potency – strain 3D7, dose response (AID 2305)

Compound	pIC50
CCc1c(CCNCCCCCCNC(C)Cc2ccc3c(c2CC)OCO3)ccc(OC)c1OC (stereo not drawn)	6.06
O=C(/C=C/c1ccc(Cl)c(Cl)c1)NCCCCCCN1CCN(C(=O)Nc2cc(F)cc(F)c2)CC1	5.97
COc1ccc(CC(=O)NC(CCCN2CCC3(CC2)OCc2ccccc23)c2ccc(Cl)c(Cl)c2)cc1 (stereo not drawn)	5.95
COc1cc2c(Nc3cccc(NC(=O)c4ccccc4)c3)ncnc2cc1OCCCN1CCOCC1	6.82
Cn1nc(-c2ccccc2F)c2cc(C(=O)NC3CCN(Cc4ccccc4)CC3)sc21	6.10
COc1cc2nc(N3CC(C)N(C(=O)Cc4ccc(-c5ccccc5)cc4)C(C)C3)nc(N)c2cc1OC (stereo not drawn)	6.10
Cc1cc2cc(/C=C/C(=O)NC3CCC(CCN4CCc5ccc(C#N)cc5CC4)CC3)ccc2[nH]1 (stereo not drawn)	6.06
CC(Cc1ccc(NC(=O)c2ccc(CNCCc3ccccc3)cc2)cc1)NCCc1cccc(Cl)c1 (stereo not drawn)	6.46
CC1(C)CCCN(Cc2c(O)ccc3c(=O)c(-c4nc5ccccc5s4)c(N)oc23)C1	6.47
CCNc1cc(C(=O)N[C@@H](Cc2ccccc2)[C@H](O)CNCCc2ccccc2)cc(N2CCCC2=O)c1	6.08
COc1cc(C(=O)N2[C@@H](c3nccs3)[C@@H](C(=O)N(OC)C(C)c3ccccc3)C[C@@]2(CC(C)C)C(=O)OC(C)(C)C)ccc1C(C)(C)C (stereo partly drawn)	5.97
CC[C@H](NC(=O)c1c(CN2CCC(N3CCCCC3)CC2)c(-c2ccccc2)nc2c(Cl)c(O)ccc12)c1ccccc1	6.14
CCCCCCCNC(=O)NCC1CCCN(CCCCCNC(=O)/C=C/c2ccc(Cl)c(Cl)c2)C1 (stereo not drawn)	5.98
CC[C@H]1CN2CCc3cc(OC)c(OC)cc3[C@@H]2C[C@@H]1C[C@H]1NCCc2c1cc(OC)c(O)c2Cl	6.85
Cc1ccc(NC(=O)c2ccc(Cl)cc2)cc1-c1ccc(C(=O)Nc2ccncc2)cc1	6.11
COc1ccc2ncc(C#N)c(CCN3CCC(NCc4ccc5c(n4)NC(=O)CS5)CC3)c2n1	6.08
O=C(Nc1ccc(CN2CCOCC2)cc1)c1ccc(-c2cc(Cl)ccc2Cl)o1	6.21
Cc1ccc2c(NN=CC=Cc3ccccc3)cc(C)nc2c1	5.95
O=c1cc(NCCCNCc2sc(Br)c(Br)c2Br)[nH]c2ccccc12	6.00
O=C(C=Cc1ccc(Br)cc1)N1CCC(CCN2CCC(c3c[nH]c4ccccc34)CC2)CC1	6.04
Cc1ccc(S(=O)(=O)c2nc(S(=O)(=O)c3ccccc3)sc2NCC2CCCO2)cc1 (stereo not drawn)	5.99
CN(C)CCN(Cc1ccccc1)c1ccc([N+](=O)[O-])cc1C(F)(F)F	6.11
CC(=O)c1ccc(NC(=O)C2c3ccccc3C(=O)N(CC(C)C)C2c2cccs2)cc1 (stereo not drawn)	5.88
CN1CCN(CCCSc2ccc3c(c2)ncn3-c2cc(OCc3ccccc3C(F)(F)F)c(C(N)=O)s2)CC1	6.36

Compound	pIC50
CCC(NC(=O)c1ccccc1NC(=O)c1ccc(C)cc1)C(=O)OC (stereo not drawn)	6.12
CCCCCN1CCCC(NS(=O)(=O)c2ccc(C(=O)Nc3cccc(C(F)(F)F)c3)cc2)C1 (stereo not drawn)	6.10
O=C(Nc1ccc(Cl)cc1)c1cccc(CN2CCCN(Cc3cccc(O)c3)CC2)c1	6.02
COc1ccc2ncc(Cl)c(CCN3CCC(NCc4ccc5c(n4)NC(=O)CS5)CC3)c2c1	6.23
Oc1cccc(Nc2ccnc3cc(-c4cc5ccccc5o4)ccc23)c1	6.12
NOCCCCOc1ccc(Cl)cc1	6.11
CC[C@@H]([C@@H](Cc1cc2ccccc2s1)C(=O)N[C@@H](CCCCNC(=O)OCc1ccccc1)C(=O)Nc1ccccn1)N(O)C=O	6.64
COCCC[C@H]1C(=O)O[C@H]2CCC[C@@H]21	6.15
c1ccc(CCNc2nc(NCC(c3ccccc3)c3ccccc3)c3[nH]cnc3n2)cc1	6.21
CCn1cnc2c(N3CCCC3=O)cc(C(=O)N[C@@H](Cc3ccccc3)[C@H](O)CNC3CCCCC3)cc21	6.24
N#Cc1ccc(C=CC(=O)NC2CCC(CCN3CCc4ccc(-c5cnccn5)cc4CC3)CC2)cc1 (stereo not drawn)	6.21
Cc1noc(C)c1-c1ccc2c(Nc3ccccc3C(C)(C)C)c(C(=O)NC3CCCC3)cnc2c1	5.98
O=C(CCc1cccnc1)Nc1ccc(-c2cccc(-c3nc4ccc(F)cc4[nH]3)c2)cc1	6.04
Cc1cc(=O)[nH]c2cc(Nc3ccnc(Nc4cccc(C(N)=O)c4)n3)ccc12	5.82
COc1cc(F)c2ncc(F)c([C@@H](O)CN3CCC(NCc4cc5c(cn4)OCCO5)CC3)c2c1	6.32
C=CCc1cc(Cc2cnc(N)nc2N)c2ccc(C)nc2c1OC	6.16
O=C(/C=C/c1ccc(Cl)c(Cl)c1)NCCCCCN1CCC(NC(=O)c2cccc(Cl)c2)CC1	6.16
CC(=O)c1ccc(NC(=O)CSc2nc(-c3ccccc3Cl)ns2)cc1	5.95
CC(=O)Nc1ccc(OCCN(Cc2ccccc2C(F)(F)F)c2ccc(C#N)c(C(F)(F)F)c2)c(Cl)c1	6.21
CN(C)CCC1CCCc2ccc(NC(=O)Nc3ccc(-c4ccncc4)c4ccccc34)cc21 (stereo not drawn)	5.97
CC(C)C[C@H](NC(=O)c1cc2cc(OCCN3CCNCC3)ccc2o1)C(=O)NC1CC[C@@H](C)N(C(=O)Nc2ccc(Cl)cc2)CC1=O (stereo partly drawn)	6.42
CCOC(=O)c1cnc2c(OC)cc(OC)c(Cl)c2c1Nc1cccc(C)c1	6.08
O=C(/C=C/c1ccc(Cl)c(Cl)c1)NCCCCN1CCCN(C(=O)Nc2ccc(C(F)(F)F)cc2)CC1	6.07
CN1C(C)(C)CC(NC(=O)c2ccc(-c3cc4cc(Cl)c(Cl)cc4[nH]3)o2)CC1(C)C	5.95
